Measured values taken from ChEMBL document CHEMBL3085719, “Structure-based design and synthesis of potent benzothiazole inhibitors of interleukin-2 inducible T cell kinase (ITK)” (Bioorg Med Chem Lett, 2013).
In brackets after ≈: the same amount, converted by molar mass.

Assays:
[1] = Aqueous solubility of the compound at pH 7.4; assay type: physicochemical; settings: buffer
[2] = Lipophilicity, log D of the compound at pH 7.4; settings: buffer
[3] = molecular target: T1, Tyrosine-protein kinase ITK/TSK (Homo sapiens, UniProt Q08881); experiment: Inhibition of ITK in human Jurkat cells assessed as inhibition of PLC-gamma1 phosphorylation by immuno-detection assay; assay type: cell-based
T1 sequence (Q08881 whole entry): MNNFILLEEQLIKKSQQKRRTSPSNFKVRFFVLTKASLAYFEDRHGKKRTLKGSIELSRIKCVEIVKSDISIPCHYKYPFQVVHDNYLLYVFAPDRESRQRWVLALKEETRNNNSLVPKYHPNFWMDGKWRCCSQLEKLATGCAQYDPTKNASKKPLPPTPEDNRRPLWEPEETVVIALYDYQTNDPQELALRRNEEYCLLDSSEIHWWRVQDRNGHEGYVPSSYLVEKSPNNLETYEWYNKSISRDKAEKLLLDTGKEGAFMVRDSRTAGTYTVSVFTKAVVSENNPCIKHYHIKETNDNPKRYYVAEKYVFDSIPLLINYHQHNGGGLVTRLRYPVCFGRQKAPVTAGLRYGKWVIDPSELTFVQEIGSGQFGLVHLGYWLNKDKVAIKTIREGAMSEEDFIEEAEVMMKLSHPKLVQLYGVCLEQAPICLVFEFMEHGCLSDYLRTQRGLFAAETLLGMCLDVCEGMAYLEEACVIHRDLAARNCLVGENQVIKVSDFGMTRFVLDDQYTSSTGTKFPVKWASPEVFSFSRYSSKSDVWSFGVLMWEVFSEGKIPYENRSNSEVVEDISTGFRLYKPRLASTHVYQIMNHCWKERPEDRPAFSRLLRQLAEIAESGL

[4] = molecular target: T1, Tyrosine-protein kinase ITK/TSK; experiment: Inhibition of full length GST-tagged ITK (unknown origin) using Ac-EFPIYDFLPAKKK-NH2 as substrate after 35 mins by LC/MS analysis
[5] = molecular target: Tyrosine-protein kinase Lck (Homo sapiens, UniProt P06239); experiment: Inhibition of LCK (unknown origin)
Sequence of Tyrosine-protein kinase Lck (P06239 whole entry): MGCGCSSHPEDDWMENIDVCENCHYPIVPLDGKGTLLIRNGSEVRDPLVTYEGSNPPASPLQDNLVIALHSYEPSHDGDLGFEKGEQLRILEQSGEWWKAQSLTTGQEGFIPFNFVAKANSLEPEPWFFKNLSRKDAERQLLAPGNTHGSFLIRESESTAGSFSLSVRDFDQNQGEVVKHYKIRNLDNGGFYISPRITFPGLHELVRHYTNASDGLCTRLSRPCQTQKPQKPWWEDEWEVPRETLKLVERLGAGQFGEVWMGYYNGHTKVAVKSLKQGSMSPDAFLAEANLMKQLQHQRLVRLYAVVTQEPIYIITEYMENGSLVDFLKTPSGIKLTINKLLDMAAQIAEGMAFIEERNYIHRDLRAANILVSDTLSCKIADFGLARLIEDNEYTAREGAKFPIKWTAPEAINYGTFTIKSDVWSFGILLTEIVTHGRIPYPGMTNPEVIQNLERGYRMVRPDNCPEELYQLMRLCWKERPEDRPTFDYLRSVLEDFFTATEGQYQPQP

[6] = molecular target: Tyrosine-protein kinase ABL1 (Homo sapiens) (UniProt P00519); experiment: Inhibition of ABL (unknown origin) at 0.1 uM relative to control
Sequence of Tyrosine-protein kinase ABL1 (Homo sapiens) (P00519 whole entry): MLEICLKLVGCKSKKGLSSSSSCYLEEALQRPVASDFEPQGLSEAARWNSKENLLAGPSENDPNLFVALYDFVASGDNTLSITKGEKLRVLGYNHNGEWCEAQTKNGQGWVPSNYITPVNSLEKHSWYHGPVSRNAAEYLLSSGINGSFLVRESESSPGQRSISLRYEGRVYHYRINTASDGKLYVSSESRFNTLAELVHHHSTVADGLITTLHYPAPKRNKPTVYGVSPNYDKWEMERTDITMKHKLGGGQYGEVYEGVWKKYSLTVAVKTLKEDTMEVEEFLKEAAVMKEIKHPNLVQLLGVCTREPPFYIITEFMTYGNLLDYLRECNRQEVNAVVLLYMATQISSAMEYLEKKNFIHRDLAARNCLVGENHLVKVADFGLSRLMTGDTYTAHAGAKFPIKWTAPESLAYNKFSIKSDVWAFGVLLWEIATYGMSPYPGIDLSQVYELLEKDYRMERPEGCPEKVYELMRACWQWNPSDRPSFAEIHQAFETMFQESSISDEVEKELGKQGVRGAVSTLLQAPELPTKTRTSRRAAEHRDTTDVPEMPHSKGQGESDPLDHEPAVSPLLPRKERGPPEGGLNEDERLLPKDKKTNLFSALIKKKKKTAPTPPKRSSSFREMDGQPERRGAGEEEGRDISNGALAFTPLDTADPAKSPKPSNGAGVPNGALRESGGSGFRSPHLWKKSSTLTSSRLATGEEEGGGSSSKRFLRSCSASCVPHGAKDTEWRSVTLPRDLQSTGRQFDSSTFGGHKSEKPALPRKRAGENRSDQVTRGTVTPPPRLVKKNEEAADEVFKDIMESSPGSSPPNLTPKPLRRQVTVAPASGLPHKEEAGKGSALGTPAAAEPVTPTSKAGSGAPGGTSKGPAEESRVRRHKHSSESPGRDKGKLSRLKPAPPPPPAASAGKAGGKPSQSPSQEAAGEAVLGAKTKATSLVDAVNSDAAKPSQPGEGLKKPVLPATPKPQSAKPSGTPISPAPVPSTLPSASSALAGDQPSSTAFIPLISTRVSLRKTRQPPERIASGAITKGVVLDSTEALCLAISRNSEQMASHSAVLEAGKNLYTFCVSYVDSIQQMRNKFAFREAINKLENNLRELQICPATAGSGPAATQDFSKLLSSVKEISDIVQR

[7] = molecular target: T2, Tyrosine-protein kinase TXK (Homo sapiens) (UniProt P42681); experiment: Inhibition of TXK (unknown origin) at 0.1 uM relative to control
T2 sequence (whole entry): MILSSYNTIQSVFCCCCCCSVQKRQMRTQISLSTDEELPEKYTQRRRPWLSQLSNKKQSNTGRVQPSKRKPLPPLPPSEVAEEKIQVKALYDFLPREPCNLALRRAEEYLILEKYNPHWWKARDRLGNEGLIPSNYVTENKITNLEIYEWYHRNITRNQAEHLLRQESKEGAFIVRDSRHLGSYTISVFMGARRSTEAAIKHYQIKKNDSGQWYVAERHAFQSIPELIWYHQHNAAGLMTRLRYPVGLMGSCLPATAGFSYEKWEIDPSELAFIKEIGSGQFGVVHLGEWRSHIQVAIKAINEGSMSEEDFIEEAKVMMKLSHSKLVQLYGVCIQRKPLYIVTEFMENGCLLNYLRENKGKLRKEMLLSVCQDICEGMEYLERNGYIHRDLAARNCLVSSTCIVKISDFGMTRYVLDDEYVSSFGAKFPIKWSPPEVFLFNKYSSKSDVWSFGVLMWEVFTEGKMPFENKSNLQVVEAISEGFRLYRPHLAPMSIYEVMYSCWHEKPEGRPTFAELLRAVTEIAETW

[8] = AUC (last) in rat at 5 mg/kg, po; assay type: ADME, organism-based; parameters: time 0 - last, dose 5 mg/kg, route oral; settings: plasma
[9] = Volume of distribution at steady state in rat at 1 mg/kg, iv; assay type: ADME, organism-based; parameters: dose 1 mg/kg, route intravenous; settings: in vivo, read-out: Vdss
[10] = molecular target: Tyrosine-protein kinase Yes (Homo sapiens) (UniProt P07947); experiment: Inhibition of YES (unknown origin) at 0.1 uM relative to control
Sequence of Tyrosine-protein kinase Yes (Homo sapiens) (P07947 2-543 limits assumed): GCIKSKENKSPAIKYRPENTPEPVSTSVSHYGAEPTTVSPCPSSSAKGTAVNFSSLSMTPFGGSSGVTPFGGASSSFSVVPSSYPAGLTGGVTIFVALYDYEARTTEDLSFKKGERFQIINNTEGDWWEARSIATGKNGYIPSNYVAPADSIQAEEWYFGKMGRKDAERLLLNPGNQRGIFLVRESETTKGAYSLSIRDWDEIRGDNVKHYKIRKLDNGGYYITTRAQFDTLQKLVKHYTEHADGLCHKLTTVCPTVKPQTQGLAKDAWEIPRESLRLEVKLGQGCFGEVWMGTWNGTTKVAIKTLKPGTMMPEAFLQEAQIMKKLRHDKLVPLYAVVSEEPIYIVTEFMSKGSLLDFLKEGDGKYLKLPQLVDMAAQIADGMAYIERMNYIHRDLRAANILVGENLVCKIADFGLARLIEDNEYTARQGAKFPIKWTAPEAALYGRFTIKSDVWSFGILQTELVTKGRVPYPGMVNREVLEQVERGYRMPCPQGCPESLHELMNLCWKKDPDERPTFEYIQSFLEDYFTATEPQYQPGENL

[11] = molecular target: Cyclin-dependent kinase 2 (Homo sapiens) (UniProt P24941); experiment: Inhibition of CDK2 (unknown origin) at 0.1 uM relative to control
[12] = Half life in rat at 1 mg/kg, iv; assay type: ADME, organism-based; parameters: dose 1 mg/kg, route intravenous; settings: in vivo
[13] = Oral bioavailability in rat at 5 mg/kg; assay type: ADME, organism-based; settings: in vivo
[14] = molecular target: Receptor-type tyrosine-protein kinase FLT3 (Homo sapiens) (UniProt P36888); experiment: Inhibition of FLT3 (unknown origin) at 0.1 uM relative to control
Sequence of Receptor-type tyrosine-protein kinase FLT3 (Homo sapiens) (P36888 whole entry): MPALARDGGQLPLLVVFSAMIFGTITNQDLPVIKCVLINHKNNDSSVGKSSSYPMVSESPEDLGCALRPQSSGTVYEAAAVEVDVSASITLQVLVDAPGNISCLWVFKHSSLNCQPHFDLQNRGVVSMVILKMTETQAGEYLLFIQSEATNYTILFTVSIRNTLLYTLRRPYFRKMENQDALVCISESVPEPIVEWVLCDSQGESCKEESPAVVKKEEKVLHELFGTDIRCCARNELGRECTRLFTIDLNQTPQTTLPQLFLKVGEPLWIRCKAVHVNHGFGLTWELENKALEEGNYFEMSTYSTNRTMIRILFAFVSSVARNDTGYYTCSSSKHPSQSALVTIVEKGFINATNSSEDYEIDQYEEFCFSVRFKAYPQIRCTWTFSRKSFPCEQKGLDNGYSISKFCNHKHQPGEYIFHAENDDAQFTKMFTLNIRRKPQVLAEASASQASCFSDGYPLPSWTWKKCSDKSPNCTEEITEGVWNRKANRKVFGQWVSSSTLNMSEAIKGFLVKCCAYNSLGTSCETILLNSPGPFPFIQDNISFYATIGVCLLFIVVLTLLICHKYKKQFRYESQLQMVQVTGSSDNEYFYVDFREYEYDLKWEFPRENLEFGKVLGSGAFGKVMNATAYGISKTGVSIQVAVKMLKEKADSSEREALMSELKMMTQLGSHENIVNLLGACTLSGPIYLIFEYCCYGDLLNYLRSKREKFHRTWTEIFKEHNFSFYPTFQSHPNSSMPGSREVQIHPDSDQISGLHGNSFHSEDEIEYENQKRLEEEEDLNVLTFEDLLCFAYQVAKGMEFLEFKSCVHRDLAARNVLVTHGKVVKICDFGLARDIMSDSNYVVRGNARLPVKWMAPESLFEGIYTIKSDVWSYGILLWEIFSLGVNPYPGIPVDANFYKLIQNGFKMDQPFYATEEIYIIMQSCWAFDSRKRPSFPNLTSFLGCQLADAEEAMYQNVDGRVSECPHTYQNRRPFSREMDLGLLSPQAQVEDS

[15] = AUC (last) in rat at 1 mg/kg, iv; assay type: ADME, organism-based; parameters: time 0 - last, dose 1 mg/kg, route intravenous; settings: plasma
[16] = Clearance in rat at 1 mg/kg, iv; assay type: ADME, organism-based; parameters: dose 1 mg/kg, route intravenous; settings: in vivo
[17] = Half life in rat at 5 mg/kg, po; assay type: ADME, organism-based; parameters: dose 5 mg/kg, route oral; settings: in vivo
[18] = molecular target: Casein kinase I isoform alpha (Homo sapiens) (UniProt P48729); experiment: Inhibition of CK1alpha (unknown origin) at 0.1 uM relative to control
Sequence of Casein kinase I isoform alpha (Homo sapiens) (P48729 2-337 limits assumed): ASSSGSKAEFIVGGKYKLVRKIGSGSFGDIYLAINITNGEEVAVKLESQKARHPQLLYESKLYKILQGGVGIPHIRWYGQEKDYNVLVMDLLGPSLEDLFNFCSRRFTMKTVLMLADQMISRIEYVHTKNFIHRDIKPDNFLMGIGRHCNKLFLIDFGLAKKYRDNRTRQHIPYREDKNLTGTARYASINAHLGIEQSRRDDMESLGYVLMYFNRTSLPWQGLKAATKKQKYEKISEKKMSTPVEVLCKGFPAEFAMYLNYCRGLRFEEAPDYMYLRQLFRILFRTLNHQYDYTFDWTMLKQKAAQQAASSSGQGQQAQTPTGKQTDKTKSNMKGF

[19] = molecular target: Vascular endothelial growth factor receptor 2 (Homo sapiens) (UniProt P35968); experiment: Inhibition of KDR (unknown origin) at 0.1 uM relative to control
[20] = molecular target: Serine/threonine-protein kinase PAK 4 (Homo sapiens) (UniProt O96013); experiment: Inhibition of PAK4 (unknown origin) at 0.1 uM relative to control
Sequence of Serine/threonine-protein kinase PAK 4 (Homo sapiens) (O96013 whole entry, looked up): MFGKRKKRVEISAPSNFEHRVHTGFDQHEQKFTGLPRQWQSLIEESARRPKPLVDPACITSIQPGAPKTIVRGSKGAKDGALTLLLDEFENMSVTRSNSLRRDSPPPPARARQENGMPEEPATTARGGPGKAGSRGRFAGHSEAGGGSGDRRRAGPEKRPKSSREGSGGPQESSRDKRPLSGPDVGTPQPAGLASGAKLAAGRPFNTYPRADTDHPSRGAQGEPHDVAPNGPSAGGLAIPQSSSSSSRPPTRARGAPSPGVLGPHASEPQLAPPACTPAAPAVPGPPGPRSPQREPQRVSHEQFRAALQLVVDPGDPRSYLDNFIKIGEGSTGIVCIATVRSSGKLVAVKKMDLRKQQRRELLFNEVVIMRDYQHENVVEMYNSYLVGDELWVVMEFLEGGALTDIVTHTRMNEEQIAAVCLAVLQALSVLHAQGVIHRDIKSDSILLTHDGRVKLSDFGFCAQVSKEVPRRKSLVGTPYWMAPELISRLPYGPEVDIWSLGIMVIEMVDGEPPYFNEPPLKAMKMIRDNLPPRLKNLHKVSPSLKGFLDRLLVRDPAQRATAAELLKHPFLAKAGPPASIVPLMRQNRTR

[21] = molecular target: Tyrosine-protein kinase ABL1 (Homo sapiens) (UniProt P00519); experiment: Inhibition of ABL (unknown origin) at 1 uM relative to control
[22] = molecular target: T3, Muscle, skeletal receptor tyrosine-protein kinase (Homo sapiens) (UniProt O15146); experiment: Inhibition of MUSK (unknown origin) at 1 uM relative to control
T3 sequence (whole entry): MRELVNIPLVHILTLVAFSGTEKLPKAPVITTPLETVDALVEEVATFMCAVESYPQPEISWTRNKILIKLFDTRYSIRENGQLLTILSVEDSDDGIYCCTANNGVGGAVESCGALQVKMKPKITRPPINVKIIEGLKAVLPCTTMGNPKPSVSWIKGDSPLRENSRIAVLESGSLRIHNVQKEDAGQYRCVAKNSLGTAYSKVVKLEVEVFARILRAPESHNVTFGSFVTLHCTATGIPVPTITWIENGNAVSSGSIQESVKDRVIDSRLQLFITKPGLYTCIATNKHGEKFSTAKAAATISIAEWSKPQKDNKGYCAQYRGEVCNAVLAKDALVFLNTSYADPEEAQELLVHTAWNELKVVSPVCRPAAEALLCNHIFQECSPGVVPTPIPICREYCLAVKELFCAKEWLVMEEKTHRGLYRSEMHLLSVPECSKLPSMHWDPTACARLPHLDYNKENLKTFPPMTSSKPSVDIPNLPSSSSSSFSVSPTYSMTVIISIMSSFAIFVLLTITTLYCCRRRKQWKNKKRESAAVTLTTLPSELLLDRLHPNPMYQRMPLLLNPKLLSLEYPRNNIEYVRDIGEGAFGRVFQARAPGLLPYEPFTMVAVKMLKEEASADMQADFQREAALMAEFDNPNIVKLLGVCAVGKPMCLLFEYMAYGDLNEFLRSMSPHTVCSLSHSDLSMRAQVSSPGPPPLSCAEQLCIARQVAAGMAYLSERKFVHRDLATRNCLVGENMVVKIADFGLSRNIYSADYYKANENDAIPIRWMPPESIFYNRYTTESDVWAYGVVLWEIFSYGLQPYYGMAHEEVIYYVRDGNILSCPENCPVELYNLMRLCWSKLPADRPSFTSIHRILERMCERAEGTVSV

[23] = system: RAF proto-oncogene serine/threonine-protein kinase (Homo sapiens), P04049 [Y340D,Y341D]; experiment: Inhibition of RAF Y340D/Y341D double mutant (unknown origin) at 1 uM relative to control
Sequence of RAF proto-oncogene serine/threonine-protein kinase (Homo sapiens), P04049 [Y340D,Y341D] (P04049 whole entry Y340D/Y341D): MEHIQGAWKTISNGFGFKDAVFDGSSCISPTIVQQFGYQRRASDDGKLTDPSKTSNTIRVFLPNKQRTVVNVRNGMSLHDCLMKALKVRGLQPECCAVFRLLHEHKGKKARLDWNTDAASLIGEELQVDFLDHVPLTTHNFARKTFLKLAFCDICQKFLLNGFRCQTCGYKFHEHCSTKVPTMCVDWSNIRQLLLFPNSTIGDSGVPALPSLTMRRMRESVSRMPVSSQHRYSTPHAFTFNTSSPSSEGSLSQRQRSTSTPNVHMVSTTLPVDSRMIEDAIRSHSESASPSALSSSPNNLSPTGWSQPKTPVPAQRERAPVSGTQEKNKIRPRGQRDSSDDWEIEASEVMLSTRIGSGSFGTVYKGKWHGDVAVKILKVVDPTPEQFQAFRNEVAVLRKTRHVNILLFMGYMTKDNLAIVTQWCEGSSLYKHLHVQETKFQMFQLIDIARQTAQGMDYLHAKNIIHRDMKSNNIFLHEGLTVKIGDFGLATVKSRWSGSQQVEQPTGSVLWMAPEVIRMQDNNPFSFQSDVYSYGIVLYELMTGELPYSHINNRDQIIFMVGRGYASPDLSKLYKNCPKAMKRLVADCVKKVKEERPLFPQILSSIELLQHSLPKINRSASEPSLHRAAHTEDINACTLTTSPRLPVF

Row | SMILES | solubility [1] | logD [2] | IC50 [3] | Ki [4] | other results
1 | COc1ccc2nc(NC(=O)[C@H]3C[C@@H]3c3ccccc3)sc2c1 (racemic) | < 2 µM | – | – | – | –
2 | COc1ccc([C@H]2C[C@@H]2C(=O)Nc2nc3ccc(OC)cc3s2)cc1 (racemic) | 11 µM (≈ 3.9 µg/mL) | – | – | – | –
3 | COc1ccc([C@H]2C[C@@H]2C(=O)Nc2nc3ccc(-c4cn[nH]c4)cc3s2)cc1 | < 1 µM | 4.4 | – | – | –
4 | CCN(CC)Cc1cc([C@H]2C[C@@H]2C(=O)Nc2nc3ccc(-c4cn[nH]c4)cc3s2)ccc1OC | 180 µM (≈ 85.6 µg/mL) | 2.6 | – | – | –
5 | COc1ccc([C@H]2C[C@@H]2C(=O)Nc2nc3ccc(-c4cncc(CO)c4)cc3s2)cc1 (racemic) | – | – | > 20000 nM | 5.3 nM | inhibition [21]: > 50%; inhibition [22]: > 50%; inhibition [23]: > 50%

The next lines start with results.

Row | solubility [1] | logD [2] | IC50 [3] | Ki [4] | SMILES | other results
6 | < 1 µM | 2.7 | – | – | CN(C)Cc1ccc([C@H]2C[C@@H]2C(=O)Nc2nc3ccc(-c4cccnc4)cc3s2)cc1 (racemic) | –
7 | < 1 µM | 4.4 | – | – | COc1ccc(C2CC2C(=O)Nc2nc3ccc(-c4cn[nH]c4)cc3s2)cc1 (racemic) | –
8 | < 1 µM | 3 | 89 nM | 0.6 nM | CN(C)Cc1ccc(C2CC2C(=O)Nc2nc3ccc(-c4cn[nH]c4)cc3s2)cc1 (racemic) | Ki [5]: 46 nM
9 | < 1 µM | 3 | 91 nM | 0.7 nM | CN(C)Cc1ccc([C@H]2C[C@@H]2C(=O)Nc2nc3ccc(-c4cn[nH]c4)cc3s2)cc1 | inhibition [6]: > 50%; inhibition [7]: > 50%; AUC(0-t) [8]: 4.8 µM·h; Vd [9]: 3.2 L/kg; inhibition [10]: > 50%; inhibition [11]: > 50%; half-life [12]: 3.4 h; bioavailability [13]: 35%; inhibition [14]: > 50%; AUC(0-t) [15]: 2.8 µM·h; clearance [16]: 12 mL/min/kg; Ki [5]: 55 nM; half-life [17]: 3 h; inhibition [18]: > 50%; inhibition [19]: > 50%; inhibition [20]: > 50%
10 | 11 µM (≈ 4.59 µg/mL) | 2.8 | – | – | CN(C)Cc1cccc([C@H]2C[C@@H]2C(=O)Nc2nc3ccc(-c4cn[nH]c4)cc3s2)c1 (racemic) | –
